# Laboratory results published in BindingDB's records for doi:10.1016/j.bmcl.2010.05.049 (University of Athens, 2010).
# Experiment: Binding affinity to Influenza A Weybridge(H7N7) virus Matrix protein 2 by spectrophotometry
row,Compound,Kd [µM]
1,C1CCC2(NC1)C1CC3CC(C1)CC2C3 (stereo unspecified),0.39
2,CC1CCC2(N1)C1CC3CC(C1)CC2C3 (stereo unspecified),1.5
3,C1CNC2(C1)C1CC3CC(C1)CC2C3 (stereo unspecified),1.16
4,CC1(N)C2CC3CC(C2)CC1C3 (stereo unspecified),3.6
5,C1CCC(C23CC4CC(CC(C4)C2)C3)NC1 (stereo unspecified),1.51
6,NC12CC3CC(C1)CC(F)(C3)C2,4.86
7,CCC1(N)C2CC3CC(C2)CC1C3 (stereo unspecified),6.7
8,O=C1CCC2(N1)C1CC3CC(C1)CC2C3 (stereo unspecified),1.49
9,CCC1CCC2(N1)C1CC3CC(C1)CC2C3 (stereo unspecified),5.58
10,CCCC1(N)C2CC3CC(C2)CC1C3 (stereo unspecified),8.71
11,C1CNC(C23CC4CC(CC(C4)C2)C3)C1 (stereo unspecified),0.51
12,CN1CCCC12C1CC3CC(C1)CC2C3 (stereo unspecified),2.93
13,NC1C2CC3CC(C2)CC1C3 (stereo unspecified) [2-Adamantanamine],2.36
14,NC1CCCCCC1 [Cycloheptanamine],16.2
15,NC1CCCCCCC1 [Cyclooctanamine],1.83
16,NC12CC3CC(CC(C3)C1)C2 [SYMADINE],0.32
